These results are taken from patent US20220073536A1 (Rigel Pharmaceuticals, Inc., priority 2003, published 2022).

The subject of assay [1] is cultured human mast cells (CHMC). The assay is described as follows: CHMC low cell density ionomycin activation: tryptase assay. The assay is classed as cell-based. The following applies: low cell density CHMC, tryptase readout, 3 pt, read-out: LD Tryptase, CHMC, Iono, 3 pt.
For assay [2] the test system is unchanged. Briefly: CHMC low cell density IgE activation: tryptase assay. The assay is classed as cell-based. The conditions noted are these: low cell density CHMC, IgE activation, tryptase readout. In short, it runs like this: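 CHMC at 1000–1500 cells/well were preincubated 1 hr at 37° C., stimulated with anti-IgE for 30 minutes at 37° C., then pelleted. Supernatant tryptase was measured with a fluorogenic substrate after 30 min at room temperature, against un-stimulated control wells.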

Setting [3] is: Homo sapiens, Mast cell, 3 pt, read-out: LD Tryptase, CHMC, IgE, 3 pt.
Where [4] appears, read: Homo sapiens, Mast cell, 8 pt, read-out: LD Tryptase, CHMC, IgE, 8 pt.
Where [5] appears, read: 8 pt, read-out: LD Tryptase, CHMC, IgE, 8 pt.
Setting [6] is: 3 pt, read-out: LD Tryptase, CHMC, IgE, 3 pt.

Molecules are shown by their SMILES. Where a name gives a salt, the structure may show the parent alone.

Regarding `Cc1cc(Nc2ncc(F)c(N(C)c3ccc4c(c3)N(C)C(=O)C(C)(C)O4)n2)cc(Cl)c1OC1CCCC1` [Compound 1032, N2-(3-Chloro-4-cyclopentyloxy-5-methylphenyl)-5-fluoro-N4-methyl-N4-(3-oxo-2,2,4-trimethyl-benz[1,4]oxazin-6-yl)-2,4-pyrimidinediamine], the IC50 in assay [1] (Homo sapiens, Mast cell) is over 10 µM; in assay [2] (setting [3]) it was over 10 µM.
In the case of `COc1c(C)cc(Nc2ncc(F)c(Nc3ccc4c(c3)N(C)C(=O)C(C)(C)O4)n2)cc1C` [Compound 1033], the IC50 in assay [1] (Homo sapiens, Mast cell) was under 10 µM; in assay [2] (setting [3]) it was under 10 µM; in assay [2] (setting [4]), under 10 µM.
For `Cc1cc(Nc2ncc(F)c(Nc3ccc4c(c3)N(C)C(=O)C(C)(C)O4)n2)cc(Cl)c1OC1CCCC1` [Compound 1034, N2-(3-Chloro-4-cyclopentyloxy-5-methylphenyl)-5-fluoro-N4-(3-oxo-2,2,4-trimethyl-benz[1,4]oxazin-6-yl)-2,4-pyrimidinediamine], the IC50 in assay [1] (Homo sapiens, Mast cell) was over 10 µM; in assay [2] (setting [3]), under 10 µM.
Turning to `CC1(C)Oc2ccc(Nc3nc(Nc4cccc(-c5cocn5)c4)ncc3F)cc2NC1=O` [Compound 1036, N4-(2,2-Dimethyl-3-oxo-4H-benz[1,4]oxazin-6-yl)-5-fluoro-N2-[3-(oxazol-4-yl)phenyl]-2,4-pyrimidinediamine], the IC50 in assay [1] (Homo sapiens, Mast cell) is under 10 µM; in assay [2] (setting [3]), under 10 µM; in assay [2] (setting [4]), under 10 µM.
In the case of `CNC(=O)COc1c(C)cc(Nc2ncc(F)c(Nc3ccc4c(n3)NC(=O)C(C)(C)O4)n2)cc1Cl` [Compound 1037, N2-[3-Chloro-5-methyl-4-(N-methylamino)carbonylmethyleneoxyphenyl]-N4-(2,2-dimethyl-3-oxo-4H-5-pyrid[1,4]oxazin-6-yl)-5-fluoro-2,4-pyrimidinediamine], the results for the IC50 in assay [1] and in assay [2] (setting [5]) were over 10 µM and under 10 µM, respectively.
On the same counts, the results for `CCOC(=O)COc1c(C)cc(Nc2ncc(F)c(Nc3ccc4c(n3)NC(=O)C(C)(C)O4)n2)cc1C` [Compound 1038, N2-(3,5-Dimethyl-4-ethoxycarbonylmethyleneoxyphenyl)-N4-(2,2-dimethyl-3-oxo-4H-5-pyrid[1,4]oxazin-6-yl)-5-fluoro-2,4-pyrimidinediamine] are over 10 µM and under 10 µM.
Regarding `Cc1cc(Nc2ncc(F)c(Nc3ccc4c(c3)NC(=O)C(C)(C)O4)n2)cc(Cl)c1OC(C)C` [Compound 1039, N2-(3-Chloro-4-isopropoxy-5-methylphenyl)-N4-(2,2-dimethyl-3-oxo-4H-benz[1,4]oxazin-6-yl)-5-fluoro-2,4-pyrimidinediamine], the IC50 in assay [1] (Homo sapiens, Mast cell) was under 10 µM; in assay [2] (setting [4]) it was under 10 µM.
`Cc1cc(Nc2ncc(F)c(Nc3ccc4c(n3)NC(=O)C(C)(C)O4)n2)cc(Cl)c1OC(C)C` [Compound 1040, N2-(3-Chloro-4-isopropoxy-5-methylphenyl)-N4-(2,2-dimethyl-3-oxo-4H-5-pyrid[1,4]oxazin-6-yl)-5-fluoro-2,4-pyrimidinediamine]: the IC50 in assay [1] is under 10 µM; in assay [2] (setting [5]), over 10 µM.
With `CNC(=O)COc1c(C)cc(Nc2ncc(F)c(Nc3ccc4c(n3)NC(=O)C(C)(C)O4)n2)cc1C` [Compound 1041, N2-[3,5-Dimethyl-4-(N-methylamino)carbonylmethyleneoxyphenyl]-N4-(2,2-dimethyl-3-oxo-4H-5-pyrid[1,4]oxazin-6-yl)-5-fluoro-2,4-pyrimidinediamine], the IC50 in assay [1], in assay [2] (setting [6]) and in assay [2] (setting [5]) was under 10 µM each time.
Regarding `CCOC(=O)COc1c(C)cc(Nc2ncc(F)c(Nc3ccc4c(n3)NC(=O)C(C)(C)O4)n2)cc1Cl` [Compound 1042, N2-(3-Chloro-4-ethoxycarbonylmethyleneoxy-5-methylphenyl)-N4-(2,2-dimethyl-3-oxo-4H-5-pyrid[1,4]oxazin-6-yl)-5-fluoro-2,4-pyrimidinediamine], the IC50 in assay [1] and in assay [2] (setting [6]) was over 10 µM each time.
`Cc1cc(Nc2ncc(F)c(Nc3ccc4c(n3)NC(=O)C(C)(C)O4)n2)cc(Cl)c1OCC(=O)NCC(O)CO` (stereo not shown) [Compound 1043, N2-[3-Chloro-4-[N-(2,3-dihydroxypropyl)amino]carbonylmethyleneoxy-5-methylphenyl]-N4-(2,2-dimethyl-3-oxo-4H-5-pyrid[1,4]oxazin-6-yl)-5-fluoro-2,4-pyrimidinediamine]: the IC50 in assay [1] was over 10 µM; in assay [2] (setting [6]), under 10 µM; in assay [2] (setting [5]), under 10 µM.
`Cc1cc(Nc2ncc(F)c(Nc3ccc4c(n3)NC(=O)C(C)(C)O4)n2)cc(C)c1OCC(=O)NC1CCCC1` [Compound 1044, N2-[3,5-Dimethyl-4-(N-cyclopentylamino)carbonylmethyleneoxyphenyl]-N4-(2,2-dimethyl-3-oxo-4H-5-pyrid[1,4]oxazin-6-yl)-5-fluoro-2,4-pyrimidinediamine]: the IC50 in assay [1], in assay [2] (setting [6]) and in assay [2] (setting [5]) was over 10 µM in each case.
In the case of `CNC(=O)COc1cccc(Nc2ncc(F)c(Nc3ccc4c(c3)NC(=O)C(F)(F)O4)n2)c1` [Compound 1045, N4-(2,2-Difluoro-3-oxo-4H-benz[1,4]oxazin-6-yl)-5-fluoro-N2-[3-(N-methylamino)carbonylmethyleneoxyphenyl]-2,4-pyrimidinediamine Hydrogen Chloride Salt], the IC50 was over 10 µM in assay [1], under 10 µM in assay [2] (setting [6]) and under 10 µM in assay [2] (setting [5]).
Take `CNC(=O)COc1cccc(Nc2ncc(F)c(Nc3ccc4c(c3)NC(=O)C(F)(F)O4)n2)c1` [Compound 1046, N4-(2,2-Difluoro-3-oxo-4H-benz[1,4]oxazin-6-yl)-5-fluoro-N2-[3-(N-methylamino)carbonylmethyleneoxyphenyl]-2,4-pyrimidinediamine Methanesulfonic Acid Salt]: the values for the IC50 in assay [1], in assay [2] (setting [6]) and in assay [2] (setting [5]) were over 10 µM, under 10 µM and under 10 µM, respectively.
For `CC1(C)Oc2ccc(Nc3nc(Nc4ccc5cn[nH]c5c4)ncc3F)cc2NC1=O` [Compound 1047, N4-(2,2-Dimethyl-3-oxo-4H-benz[1,4]oxazin-6-yl)-5-fluoro-N2-(indazol-6-yl)-2,4-pyrimidinediamine Methanesulfonic Acid Salt], the IC50 in assay [1] (Homo sapiens, Mast cell) was over 10 µM; in assay [2] (setting [3]) it was over 10 µM; in assay [2] (setting [4]), under 10 µM.
With `CCn1ncc2ccc(Nc3ncc(F)c(Nc4ccc5c(n4)NC(=O)C(C)(C)O5)n3)cc21` [Compound 1049, N4-(2,2-Dimethyl-3-oxo-4H-5-pyrid[1,4]oxazin-6-yl)-N2-(1-ethylindazol-6-yl)-5-fluoro-2,4-pyrimidinediamine], the IC50 in assay [1] is over 10 µM; in assay [2] (setting [6]), under 10 µM; in assay [2] (setting [5]) it was under 10 µM.
In the case of `CC(C)n1ncc2ccc(Nc3ncc(F)c(Nc4ccc5c(n4)NC(=O)C(C)(C)O5)n3)cc21` [Compound 1050, N4-(2,2-Dimethyl-3-oxo-4H-5-pyrid[1,4]oxazin-6-yl)-N2-(1-isopropylindazol-6-yl)-5-fluoro-2,4-pyrimidinediamine], the IC50 was over 10 µM in assay [1], under 10 µM in assay [2] (setting [6]) and under 10 µM in assay [2] (setting [5]).
With `CC1(C)CNc2nc(Nc3nc(Cl)ncc3F)ccc2O1` [Compound 1051, 2-Chloro-N4-(3,4-dihydro-2,2-dimethyl-4H-5-pyrid[1,4]oxazin-6-yl)-5-fluoro-4-pyrimidineamine], the IC50 in assay [1] and in assay [2] (setting [6]) was over 10 µM throughout.
